Reference: PMC10189658 (Journal of inorganic biochemistry, 2023)

Biological target: T1, human heme oxygenase-1 (hHO-1) (Homo sapiens, UniProt P09601)
T1 sequence (P09601 1-288): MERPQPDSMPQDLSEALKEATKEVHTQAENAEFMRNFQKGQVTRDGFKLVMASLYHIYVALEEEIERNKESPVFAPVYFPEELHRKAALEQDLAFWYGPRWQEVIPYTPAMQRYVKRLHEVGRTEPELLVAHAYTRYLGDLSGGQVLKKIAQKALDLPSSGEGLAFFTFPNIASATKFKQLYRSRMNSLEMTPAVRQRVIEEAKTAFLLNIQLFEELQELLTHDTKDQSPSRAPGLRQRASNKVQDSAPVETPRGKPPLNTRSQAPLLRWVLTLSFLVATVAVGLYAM
Assay: UV-Vis Soret equilibrium binding titration

Kd: 4.46 ± 0.8 µM
SMILES: Brc1ccc(CCC2(Cn3ccnc3)OCCO2)cc1 [OB-24]
